Data on 5 compounds can be found in patent US11166958B2, “4-pyrazin-2-ylmethyl-morpholine derivatives and the use thereof as medicament” (Boehringer Ingelheim International GmbH, priority 2018, dated 2021).

Structures are written as SMILES.

The target of one assay is NMDA NR1/NR2B receptor (Homo sapiens (Human), UniProt Q13224). The assay is described as follows: In vitro NMDA NR1/NR2B cell assay (FLIPR, intracellular calcium induced by glycine/glutamate). The assay is classed as cell-based. Conditions: HEK293 NR1/NR2B, 20 μM glycine / 1 μM glutamate, read-out: In vitro NR2B affinity, IC50. As to the method: A human HEK293 cell line with tetracyclin-inducible expression of NMDA NR1/NR2B receptor was used as a test system for compound efficacy and potency. The cell line was purchased from ChanTest, Catalog #CT6121. Compound activity was determined by measuring the effect of compounds on intracellular calcium concentration induced by glycine/glutamate agonism in a FLIPRtetra system (Molecular Devices).
Chain of NMDA NR1/NR2B receptor (Q13224 27-1484, other chains not shown): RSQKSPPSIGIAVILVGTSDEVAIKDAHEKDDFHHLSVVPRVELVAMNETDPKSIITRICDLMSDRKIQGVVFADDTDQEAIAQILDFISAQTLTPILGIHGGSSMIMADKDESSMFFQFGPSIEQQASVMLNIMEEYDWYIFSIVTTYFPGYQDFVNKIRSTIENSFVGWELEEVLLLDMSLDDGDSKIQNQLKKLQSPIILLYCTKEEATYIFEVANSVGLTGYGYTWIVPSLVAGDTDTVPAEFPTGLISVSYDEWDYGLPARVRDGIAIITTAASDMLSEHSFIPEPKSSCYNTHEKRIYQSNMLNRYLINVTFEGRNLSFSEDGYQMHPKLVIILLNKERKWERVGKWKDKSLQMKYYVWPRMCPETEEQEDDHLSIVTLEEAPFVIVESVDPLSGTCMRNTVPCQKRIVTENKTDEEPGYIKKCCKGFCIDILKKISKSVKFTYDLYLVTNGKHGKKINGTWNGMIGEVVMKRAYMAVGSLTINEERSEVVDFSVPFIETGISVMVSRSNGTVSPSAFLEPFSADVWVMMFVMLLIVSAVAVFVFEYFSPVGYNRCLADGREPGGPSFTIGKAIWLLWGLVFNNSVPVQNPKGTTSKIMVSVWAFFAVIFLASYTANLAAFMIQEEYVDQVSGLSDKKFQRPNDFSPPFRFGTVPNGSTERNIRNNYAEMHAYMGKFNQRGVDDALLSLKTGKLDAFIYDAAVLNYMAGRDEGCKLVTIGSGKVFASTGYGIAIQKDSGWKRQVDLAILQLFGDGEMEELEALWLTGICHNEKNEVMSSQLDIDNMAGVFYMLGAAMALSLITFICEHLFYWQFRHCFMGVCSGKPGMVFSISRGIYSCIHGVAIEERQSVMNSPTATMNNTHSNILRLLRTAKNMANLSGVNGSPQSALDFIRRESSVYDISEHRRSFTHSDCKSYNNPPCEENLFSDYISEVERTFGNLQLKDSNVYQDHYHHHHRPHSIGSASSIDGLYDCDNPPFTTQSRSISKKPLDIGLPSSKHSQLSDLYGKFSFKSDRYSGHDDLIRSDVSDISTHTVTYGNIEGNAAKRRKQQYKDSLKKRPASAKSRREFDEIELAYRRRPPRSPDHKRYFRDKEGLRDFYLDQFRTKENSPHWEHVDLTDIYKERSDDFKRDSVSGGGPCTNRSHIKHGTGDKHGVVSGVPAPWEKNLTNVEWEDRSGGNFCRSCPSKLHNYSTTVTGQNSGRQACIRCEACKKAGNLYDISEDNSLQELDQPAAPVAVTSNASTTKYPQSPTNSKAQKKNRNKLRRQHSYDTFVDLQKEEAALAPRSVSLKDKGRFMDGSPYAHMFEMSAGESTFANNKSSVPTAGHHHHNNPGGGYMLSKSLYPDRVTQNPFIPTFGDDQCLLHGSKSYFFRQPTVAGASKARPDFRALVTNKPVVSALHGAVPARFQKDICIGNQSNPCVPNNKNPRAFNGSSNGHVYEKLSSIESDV
The cells were obtained as frozen cells in cryo-vials and stored until use at −150° C. Cells were grown in culture medium (DMEM/F12, 10% FBS, 5 μg/mL Blasticidin, 150 μg/mL Zeozin, 500 μg/mL Geneticin). […] For sub-culturing the cells were detached from flasks by Versene. For the assay, cells were detached, washed twice with induction medium (DMEM/F12 without glutamine, 10% FBS, 2 μg/mL Tetracycline, 2 mM Ketamine) and seeded to 384 well pure coat amine plates (Becton Dickinson, 50000 cells per well in 50 μl) 48 h prior to assay in induction medium.
The test compounds were dissolved in 100% DMSO at a concentration of 10 mM and in a first step diluted in DMSO to a concentration of 5 mM, followed by serial dilution steps in 100% DMSO. Dilution factor and number of dilution steps may vary according to needs. Typically 8 different concentrations by 1:5 dilutions were prepared in duplicate, further intermediate dilutions (1:37.5) of the substances were carried out with aqueous assay buffer (137 mM NaCl, 4 mM KCl, 1.8 mM CaCl2), 10 mM HEPES, 10 mM Glucose, pH 7.4) resulting in a compound concentration 3 times above the final test concentration and DMSO at 2.7% resulting in 0.9% final DMSO concentration in the assay.
At the assay day cells were washed 3× with assay buffer (as described above), 10 μL buffer remained in the wells after washing. 10 μL Ca kit loading buffer (AAT Bioquest; prepared from the kit containing the following components: Component A: Fluo-8 NW dissolved in 200 μL DMSO and 20 μl of this solution are mixed with 10 ml buffer prepared out of component B and C, Component B: 10× Pluronic® F127 Plus diluted 1:10 in component C, Component C: HHBS (Hanks with 20 mM Hepes) was added to the cells and the plates were incubated with lid for 60 minutes at room temperature. 20 μl assay buffer containing 60 μM glycine (20 μM final) and 3 μM glutamate (1 μM final) was added to column 1-23, column 24 got assay buffer without glycine/glutamate to serve as negative unstimulated control. Fluorescence (indicating the calcium influx as a result of the NR1/NR2B ion channel activation) was read on the FLIPRtetra device for 60 seconds to monitor the glutamate induced effects. After 2 minutes 20 μL of compound dilution prepared as described above or controls (row 1-22) in assay buffer were carefully added to the wells. […] The average of 2 measurements at 5 minutes and 5 min 10 seconds after compound addition is calculated and further used for IC50 calculations. Each assay microtiter compound dilution plate contained wells (in column 23 or 24) with DMSO controls instead of compound as controls for glycine/glutamate induced fluorescence (high controls) and wells with 1 μM of a reference NR2B NAM as low controls (Compound 22; reference: Layton, Mark E et al, ACS Chemical Neuroscience 2011, 2(7), 352-362).
The output file of the reader contains the well number and measured average fluorescence units. For data evaluation and calculation, the measurement of the low control was set as 0% control and the measurement of the high control was set as 100% control. The IC50 values were calculated using the standard 4 parameter logistic regression formula. Calculation: [y=(a−d)/(1+(x/c)^b)+d], a=low value, d=high value; x=conc M; c=IC50 M; b=slope.

The next assay concerns the target Nav1.6 channel (Homo sapiens (Human), UniProt Q9UQD0). The assay can be described thus: Nav1.6 inhibition, IonWorks Quattro electrophysiology. It counts as cell-based. On the procedure: IonWorks Quattro electrophysiological platform
The compounds were prepared in DMSO at 300× the final assay concentrations of 1 and 5 μM.
The 300× DMSO stock solutions were transferred into assay plates where 2 μl per well of each 300× stock solution were placed. All assay plates were stored at −80° C. until the day of assay.
On the day of the assay, the appropriate assay plate was thawed at room temperature, centrifuged, and 198 μl of external recording solution was added and mixed thoroughly. This provided a 1:100 dilution. A further 1:3 dilution occurred upon addition to the cells in the IonWorks Quattro electrophysiological platform, giving a 1:300 dilution in total. On each assay plate, at least 8 wells were reserved for vehicle control (0.3% DMSO) and at least 8 wells for each positive control specific to the cell line tested. The positive controls were tested at a maximal blocking and an approximate IC50 concentration. As positive control Lidocaine at concentrations of 30 and 1000 μM was used.
The solutions for recording Nav1.6 currents were as follows:
Amphotericin B was used to obtain electrical access to the cell interior at a final concentration of 200 μg/ml in internal recording solution.
State-dependent inhibition: Sodium channels when held at depolarized potential or long test pulse, the channels open and inactivate and then stay inactivated until the membrane potential is stepped back to hyperpolarized potentials, when the inactivated channels recover from inactivation into closed state.
Cells were held at −120 mV. In order to completely inactivate the sodium channels (pulse 1), the cells were pulsed to +0 mV for 2500 ms and stepped back to −120 mV for 10 ms (to completely recover from inactivation, however channels that had drugs bound to them will not recover from inactivation) before stepping to +0 mV for 20 ms (pulse 2).
Assay Control Results Both the positive and vehicle control data associated with each cell line assayed are shown below as an example. The mean is shown for each positive and negative control as solid symbol with the total number of individual well replicates given next to the solid symbol. In addition, the individual data of each well are shown on the graph as open symbols so that the variation about the mean value can be readily assessed.
Shown below are the assay controls for the Nav1.6 IonWorks Quattro assay.
Tables 3 and 4 show the normalized percentage inhibition of Nav1.6 channel. […] (see also the figure Assay Control Results above).

Chain of Nav1.6 channel (Q9UQD0 whole entry): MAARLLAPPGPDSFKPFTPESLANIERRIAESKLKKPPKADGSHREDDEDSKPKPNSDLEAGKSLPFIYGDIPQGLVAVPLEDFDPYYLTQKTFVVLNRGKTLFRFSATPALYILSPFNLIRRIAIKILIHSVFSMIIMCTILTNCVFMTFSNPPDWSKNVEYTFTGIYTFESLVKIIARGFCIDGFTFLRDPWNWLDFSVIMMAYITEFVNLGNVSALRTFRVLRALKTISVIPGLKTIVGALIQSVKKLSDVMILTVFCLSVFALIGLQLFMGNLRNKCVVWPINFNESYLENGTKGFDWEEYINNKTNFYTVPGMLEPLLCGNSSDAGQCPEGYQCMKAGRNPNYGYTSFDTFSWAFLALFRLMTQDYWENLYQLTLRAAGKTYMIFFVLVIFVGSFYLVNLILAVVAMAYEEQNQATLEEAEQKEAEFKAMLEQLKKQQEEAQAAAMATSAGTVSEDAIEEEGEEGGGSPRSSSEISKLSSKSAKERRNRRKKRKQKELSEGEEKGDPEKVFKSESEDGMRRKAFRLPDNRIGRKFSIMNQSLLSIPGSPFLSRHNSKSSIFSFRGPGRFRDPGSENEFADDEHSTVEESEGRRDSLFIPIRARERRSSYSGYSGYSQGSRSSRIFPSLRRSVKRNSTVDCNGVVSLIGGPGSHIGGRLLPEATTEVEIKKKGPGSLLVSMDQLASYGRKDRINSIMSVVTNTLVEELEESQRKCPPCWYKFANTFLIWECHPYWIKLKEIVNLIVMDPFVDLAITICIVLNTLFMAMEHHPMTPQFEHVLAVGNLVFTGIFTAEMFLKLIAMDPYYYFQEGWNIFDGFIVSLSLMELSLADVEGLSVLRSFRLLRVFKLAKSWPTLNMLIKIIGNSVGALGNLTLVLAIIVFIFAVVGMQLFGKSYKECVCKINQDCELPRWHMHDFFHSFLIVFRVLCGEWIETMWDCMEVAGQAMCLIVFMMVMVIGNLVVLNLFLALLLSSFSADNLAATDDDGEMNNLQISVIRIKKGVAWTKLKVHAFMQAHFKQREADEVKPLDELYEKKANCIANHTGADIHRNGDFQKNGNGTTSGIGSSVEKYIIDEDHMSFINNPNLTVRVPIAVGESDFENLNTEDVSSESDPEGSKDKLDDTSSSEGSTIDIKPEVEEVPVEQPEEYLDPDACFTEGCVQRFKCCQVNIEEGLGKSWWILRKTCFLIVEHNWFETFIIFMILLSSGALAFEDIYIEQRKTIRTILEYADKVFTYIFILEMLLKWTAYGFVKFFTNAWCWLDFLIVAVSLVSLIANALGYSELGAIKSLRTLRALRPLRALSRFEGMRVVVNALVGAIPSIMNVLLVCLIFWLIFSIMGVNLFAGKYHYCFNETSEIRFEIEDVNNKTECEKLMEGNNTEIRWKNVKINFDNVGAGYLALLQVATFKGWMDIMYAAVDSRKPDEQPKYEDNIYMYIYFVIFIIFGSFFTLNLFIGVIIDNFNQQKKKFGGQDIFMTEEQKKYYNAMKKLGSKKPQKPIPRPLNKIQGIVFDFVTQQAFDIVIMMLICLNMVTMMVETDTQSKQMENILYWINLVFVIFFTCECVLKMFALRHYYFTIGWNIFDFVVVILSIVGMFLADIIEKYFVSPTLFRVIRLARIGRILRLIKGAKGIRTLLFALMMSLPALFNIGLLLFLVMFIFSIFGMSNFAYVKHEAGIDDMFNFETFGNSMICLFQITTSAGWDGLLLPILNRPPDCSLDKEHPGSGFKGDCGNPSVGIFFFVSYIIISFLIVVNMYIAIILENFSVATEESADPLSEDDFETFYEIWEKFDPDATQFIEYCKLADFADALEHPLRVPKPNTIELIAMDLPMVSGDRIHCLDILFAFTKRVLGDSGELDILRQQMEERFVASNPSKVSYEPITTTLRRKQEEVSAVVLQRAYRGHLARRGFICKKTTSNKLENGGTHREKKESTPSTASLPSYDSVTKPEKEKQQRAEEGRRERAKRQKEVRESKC

As for `CNC(=O)[C@@H]1CN(Cc2cnc(Oc3c(C)cccc3F)cn2)CCO1` [Example 36], the IC50 on NMDA NR1/NR2B receptor was 542 nM. For the compound `CNC(=O)[C@@H]1CN(Cc2cnc(Oc3c(F)cccc3F)cn2)CCO1` [Example 35], the 50% inhibitory concentration (IC50) on NMDA NR1/NR2B receptor was found to be 197 nM. `CCCCNc1ccc(C(=O)OCCN(C)C)cc1` [Tetracaine, reference compound]: the “state-dependent inhibition of Nav1.6” value on Nav1.6 channel (FIG. 1) is “much stronger at depolarized potentials than at hyperpolarized potential”.

As to `CNC(=O)[C@@H]1CN(Cc2cnc(Oc3ccccc3)cn2)CCO1` [Example 34], at NMDA NR1/NR2B receptor, the IC50 is 644 nM. As to `CCN(CC)CC(=O)Nc1c(C)cccc1C` [Lidocaine, reference compound], at Nav1.6 channel (read-out: maximum inhibition at P1 (not normalized)), the inhibition at 1000 µM was 46.4 to 47.2%. Also, on Nav1.6 channel (reference compound, FIG. 2), the “inhibition of evoked Nav1.6 currents” value was “inhibited evoked currents in a concentration and use dependent manner”.
